Molecular target: Type-1 angiotensin II receptor (Oryctolagus cuniculus) (UniProt P34976)
Test: Concentration required for inhibition […] against Angiotensin II receptor in rabbit aortic rings

Chain of Type-1 angiotensin II receptor (Oryctolagus cuniculus) (P34976 whole entry, looked up): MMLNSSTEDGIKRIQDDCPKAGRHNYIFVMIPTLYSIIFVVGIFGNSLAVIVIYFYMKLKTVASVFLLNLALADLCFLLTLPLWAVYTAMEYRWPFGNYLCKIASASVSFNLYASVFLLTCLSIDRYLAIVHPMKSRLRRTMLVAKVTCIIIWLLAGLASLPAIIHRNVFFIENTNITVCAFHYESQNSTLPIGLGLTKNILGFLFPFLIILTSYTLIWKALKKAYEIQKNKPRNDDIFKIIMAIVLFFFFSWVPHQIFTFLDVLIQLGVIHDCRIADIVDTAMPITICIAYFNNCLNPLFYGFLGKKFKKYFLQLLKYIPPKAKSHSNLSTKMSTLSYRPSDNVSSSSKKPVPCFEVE

pA2 | SMILES
8.01 | CCCCc1nc2ccc(C(C)(C)OC)cc2c(=O)n1Cc1ccc(-c2ccccc2-c2nn[nH]n2)cc1 [CL-329167]

Molecular target: T1, Angiotensin II receptor (Rattus norvegicus, UniProt P29089+P25095+P35351)
T1 sequence (P29089 whole entry): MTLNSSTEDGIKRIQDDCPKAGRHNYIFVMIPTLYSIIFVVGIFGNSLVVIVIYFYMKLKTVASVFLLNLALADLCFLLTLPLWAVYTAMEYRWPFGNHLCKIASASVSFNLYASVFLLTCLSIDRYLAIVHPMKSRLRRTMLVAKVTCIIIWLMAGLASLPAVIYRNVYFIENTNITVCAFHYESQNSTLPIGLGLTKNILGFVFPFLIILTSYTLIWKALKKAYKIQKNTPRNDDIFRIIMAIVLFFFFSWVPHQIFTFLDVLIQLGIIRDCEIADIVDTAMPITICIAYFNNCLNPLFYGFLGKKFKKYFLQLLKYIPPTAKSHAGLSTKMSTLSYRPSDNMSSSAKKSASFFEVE
T1 sequence (P25095 whole entry): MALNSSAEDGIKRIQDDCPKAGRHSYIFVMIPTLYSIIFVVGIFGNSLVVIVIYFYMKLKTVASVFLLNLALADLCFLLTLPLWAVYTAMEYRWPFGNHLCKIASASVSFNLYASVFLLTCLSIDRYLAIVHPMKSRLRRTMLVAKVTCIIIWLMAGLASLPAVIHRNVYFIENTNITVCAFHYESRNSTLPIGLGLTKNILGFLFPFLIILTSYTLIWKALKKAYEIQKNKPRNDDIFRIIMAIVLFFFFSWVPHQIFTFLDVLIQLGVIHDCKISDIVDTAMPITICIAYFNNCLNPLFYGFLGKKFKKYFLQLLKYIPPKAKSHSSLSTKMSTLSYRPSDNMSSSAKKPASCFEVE
T1 sequence (P35351 whole entry): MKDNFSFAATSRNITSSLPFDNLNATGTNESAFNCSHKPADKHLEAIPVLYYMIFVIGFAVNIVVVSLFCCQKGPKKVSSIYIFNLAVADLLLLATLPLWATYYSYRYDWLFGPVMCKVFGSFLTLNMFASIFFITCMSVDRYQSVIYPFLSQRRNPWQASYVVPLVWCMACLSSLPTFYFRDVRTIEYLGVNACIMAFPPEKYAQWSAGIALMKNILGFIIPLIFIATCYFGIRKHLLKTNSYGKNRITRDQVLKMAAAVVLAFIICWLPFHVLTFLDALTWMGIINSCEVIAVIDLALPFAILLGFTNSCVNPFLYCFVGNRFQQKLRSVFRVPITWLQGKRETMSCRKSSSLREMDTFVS
Test: Concentration required for 50% inhibition of binding against Angiotensin II receptor in the rat adrenal cortex tissue
Assay type: tissue-based

IC50 [nM] | SMILES
14 | CCCCc1nc2ccc(C(C)N)cc2c(=O)n1Cc1ccc(-c2ccccc2-c2nn[nH]n2)cc1 (centres undefined)
15 | CCCCc1nc2ccc(CN)cc2c(=O)n1Cc1ccc(-c2ccccc2-c2nn[nH]n2)cc1
9 | CCCCc1nc2ccc(C(C)(C)O)cc2c(=O)n1Cc1ccc(-c2ccccc2-c2nn[nH]n2)cc1
18 | CCCCc1nc2ccc(COC)cc2c(=O)n1Cc1ccc(-c2ccccc2-c2nn[nH]n2)cc1
5 | CCCCc1nc2ccc(C(CC)OC)cc2c(=O)n1Cc1ccc(-c2ccccc2-c2nn[nH]n2)cc1 (centres undefined)
12 | CCCCc1nc2ccc(C(O)CC)cc2c(=O)n1Cc1ccc(-c2ccccc2-c2nn[nH]n2)cc1 (centres undefined)
7 | CCCCc1nc2ccc(C(C)OC)cc2c(=O)n1Cc1ccc(-c2ccccc2-c2nn[nH]n2)cc1 (centres undefined)
10 | CCCCc1nc2ccc(CO)cc2c(=O)n1Cc1ccc(-c2ccccc2-c2nn[nH]n2)cc1
9 | CCCCc1nc2ccc(C(C)O)cc2c(=O)n1Cc1ccc(-c2ccccc2-c2nn[nH]n2)cc1 (centres undefined)
1000 | CCCCc1nc2ccc(C(O)CO)cc2c(=O)n1Cc1ccc(-c2ccccc2-c2nn[nH]n2)cc1 (centres undefined)
9 | CCCCc1nc2ccc(C(OC)c3ccccc3)cc2c(=O)n1Cc1ccc(-c2ccccc2-c2nn[nH]n2)cc1 (centres undefined)
1000 | CCCCc1nc2ccc(C(O)C(C)(C)C)cc2c(=O)n1Cc1ccc(-c2ccccc2-c2nn[nH]n2)cc1 (centres undefined)
6 | CCCCc1nc2ccc(C(C)NC(C)=O)cc2c(=O)n1Cc1ccc(-c2ccccc2-c2nn[nH]n2)cc1 (centres undefined)
10 | CCCCc1nc2ccc(C)cc2c(=O)n1Cc1ccc(-c2ccccc2-c2nn[nH]n2)cc1
6 | CCCCc1nc2ccc(C(C)(C)OC)cc2c(=O)n1Cc1ccc(-c2ccccc2-c2nn[nH]n2)cc1 [CL-329167]

Molecular target: T2, Type-1 angiotensin II receptor (Bos taurus, UniProt P25104)
T2 sequence (P25104 whole entry): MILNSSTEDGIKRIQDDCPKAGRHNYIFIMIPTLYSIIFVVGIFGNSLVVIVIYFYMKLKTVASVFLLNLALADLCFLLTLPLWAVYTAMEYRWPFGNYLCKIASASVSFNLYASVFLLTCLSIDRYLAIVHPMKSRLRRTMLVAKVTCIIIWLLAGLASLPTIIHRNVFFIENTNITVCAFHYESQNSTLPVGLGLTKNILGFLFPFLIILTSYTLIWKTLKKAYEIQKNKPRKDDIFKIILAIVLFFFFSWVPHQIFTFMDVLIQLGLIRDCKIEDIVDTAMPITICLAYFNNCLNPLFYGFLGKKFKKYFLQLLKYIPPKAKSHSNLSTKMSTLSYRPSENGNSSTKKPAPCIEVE
Test: Concentration required for 50% inhibition of binding against Angiotensin II receptor in the bovine adrenal cortex tissue
Assay type: tissue-based

IC50 [nM] | SMILES
130 | CCCCc1nc2ccc(COc3ccccn3)cc2c(=O)n1Cc1ccc(-c2ccccc2-c2nn[nH]n2)cc1
130 | CCCCc1nc2ccc(COc3ccccc3)cc2c(=O)n1Cc1ccc(-c2ccccc2-c2nnn[nH]2)cc1
330 | CCCCc1nc(Cl)c(CO)n1Cc1ccc(-c2ccccc2-c2nn[nH]n2)cc1 [LOSARTAN]
